Columns and labels:
[1] = tested on: "spike and wave" discharges induced by Vigabatrin® in epileptic rats; assay: Antagonism of the spike and wave discharges induced by Vigabatrin in epileptic rats; assay type: in vivo, rat
Experimental: (§1) The method and test arrangement correspond to those of Pharmacological Example 1.
3-Aminopropyl(diethoxymethyl)phosphinic acid: Antagonism of the "spike and wave" discharges induced by Vigabatrin®.3-Aminopropyl(diethoxymethyl)phosphinic acid was administered at time 0, and 20 mg/kg of Vigabatrin® were administered at time 160, in each case i.p..

[2] = tested on: "spike and wave" discharges induced by carbamazepine in epileptic rats; assay: Antagonism of the spike and wave discharges induced by carbamazepine in epileptic rats; assay type: in vivo, rat
Experimental: as §1
3-Aminopropyl(diethoxymethyl)phosphinic acid: Antagonism of the "spike and wave" discharges induced by carbamazepine. 3-Aminopropyl(diethoxymethyl)phosphinic acid was administered at time 0, and 20 mg/kg of carbamazepine were administered at time 40, in each case i.p..

[3] = tested on: "spike and wave" discharges induced by phenytoin in epileptic rats; assay: Antagonism of the spike and wave discharges induced by phenytoin in epileptic rats; assay type: in vivo, rat
Experimental: as §1
3-Aminopropyl(diethoxymethyl)phosphinic acid: Antagonism of the "spike and wave" discharges induced by phenytoin. 3-Aminopropyl(diethoxymethyl)phosphinic acid was administered at time 0, and 20 mg/kg of phenytoin were administered at time 40, in each case i.p..

[4] = tested on: "spike and wave" discharges in epileptic rats (male Wistar rats of the Strasbourg colony); assay: Inhibition of spike and wave discharges in epileptic rats (absence epilepsy model); assay type: in vivo; conditions: epileptic rat model; for minimal effective dose: dose-dependent, read-out: dose that reduces the spike and wave discharges
Description: Synchronous "spike and wave" discharges (SWD; frontopariental cortex; 7-8 Hz; 300-1000 μV, duration 0.5 to 40 s, mean value=6.0±3.4 s) and frequently myoclonia facialis accompany a cessation of behaviour. These absence-like conditions occur spontaneously and repeatedly. […] In contrast, a strain could be reared in which 100% of the rats are SWD-free (control rats). This pharmacological model is described in Vergnes M., Marescaux C., Micheletti G., Reis J., Depaulis A., Rumbach L. and Warter J. M., Neurosci. Lett. 33. 97-101 (1982).
In this model, for example, the clinically used anti-epileptics ethosuximide, diazepam, trimethadione and sodium valproate in doses≥25 mg/kg (ethosuximide),≥0.5 mg/kg (diazepam) and≥50 mg/kg (trimethadione and sodium valproate) reduce the spike and wave discharges in dose-dependent manner. […] Phenobarbital is effective at from 2.5 to 10 mg/kg and is ineffective at 20 mg/kg. The action of these anti-epileptics on the crises in rats and absences in humans supports the hypothesis that this animal model represents a pharmacological model for absence epilepsy. Its predictive value appears to be at least as good as that of other customary animal models.
The action of GABAB -antagonists was tested on male Wistar rats (300-400 g) of the Strasbourg colony. […] The rats received water and food ad libidum, and the light/dark cycle was 12/12 hours. The rats were anaesthetised with pentobarbital (40 mg/kg i.p.) and implanted bilaterally with 4 stainless steel electrodes (two in the frontal cortex and two in the parietal cortex). The rats were used for experiments no sooner than one week after the operation.
The rats, which were freely mobile, were accommodated in a Plexiglass cage (17×17×28 cm) (one rat per cage), and, after a 15-minute period for adaptation to the new surroundings, the EEG was recorded over a period of 20 minutes (reference period). The reference line for the particular test series is thus obtained. A GABAB -antagonist was then administered and the EEG was recorded over a period of from 120 to 180 minutes. The rats were kept under constant observation during this period and prevented from falling asleep by gentle manual contact.
The test compound was dissolved in 0.9% sodium chloride solution and injected in doses of 50, 100, 200 and 400 mg/kg i.p.. Alternatively, the test compound may be administered in a polyethylene glycol, such as Tween® 80, (2 drops/10 ml of suspension of the test compound in 0.9% sodium chloride solution; the suspension is homogenised at 40° for 10 minutes by means of ultrasound, injection volume: 2 ml/kg) i.p. or by means of a stomach probe p.o.. Test compounds that are soluble with difficulty are advantageously administered in solution in a mixture of dimethyl sulfoxide (not more than 10% by volume) and 0.9% sodium chloride solution or in 45% aqueous hydroxypropyl-β-cyclodextrin solution. Each animal is treated with all doses in a randomised sequence. The time between two treatments should be at least 5 days. The mean values ±SEM of the sum total duration of the "spike and wave" discharges of 6 rats over a period of 20 minutes are recorded.
The sum total duration of the spike and wave discharges (in seconds) is measured for each 20-minute period of the EEG recording. Comparisons between the treatment and the reference period are carried out by means of non-parametric variance analysis of the groups concerned (Friedman test). The control group and the treated groups are compared by means of the Wilcoxon test only when a significant difference between the two groups is found in the Friedmann test. The significances of the differences according to Wilcoxon between doses marked by an asteriks and dose 0 corresponds to p<0,005.

[5] = tested on: "epilepsy-like" discharges of pyramidal cells; assay: Penicillin-induced epileptic hippocampus section preparation (antagonism to baclofen); assay type: cell-based
Experimental: The novel GABAB -antagonists according to the invention interact at the GABAB -receptor with IC50 values of approximately 10^-8 M (moles/l) and above in cerebral cortex membranes of rats. […] The compounds according to the invention act as an antagonist to baclofen action at concentrations of from approximately 10 to approximately 100 μM (micromoles/liter). […] At doses of approximately 30 mg/kg, antagonism to the muscle-relaxing action of baclofen occurs, which is measured in the Rotarod model.

CCOC(OCC)P(=O)(O)CCCN [3-aminopropyl(diethoxymethyl)phosphinic acid]
sum total duration of the spike and wave discharges ([1]; test compound 200 mg/kg i.p. at time 0, Vigabatrin 20 mg/kg i.p. at time 160, period 240-260 min): 213 ± 52 s | sum total duration of the spike and wave discharges ([1]; test compound 200 mg/kg i.p. at time 0, Vigabatrin 20 mg/kg i.p. at time 160, period 260-280 min): 249 ± 57 s | sum total duration of the spike and wave discharges ([1]; test compound 400 mg/kg i.p. at time 0, Vigabatrin 20 mg/kg i.p. at time 160, period 240-260 min): 44 ± 13 s | sum total duration of the spike and wave discharges ([1]; test compound 400 mg/kg i.p. at time 0, Vigabatrin 20 mg/kg i.p. at time 160, period 260-280 min): 28 ± 8 s | sum total duration of the spike and wave discharges ([2]; test compound 200 mg/kg i.p. at time 0, carbamazepine 20 mg/kg i.p. at time 40, period 0-20 min): 353 ± 53 s | sum total duration of the spike and wave discharges ([2]; test compound 200 mg/kg i.p. at time 0, carbamazepine 20 mg/kg i.p. at time 40, period 20-40 min): 178 ± 37 s | sum total duration of the spike and wave discharges ([2]; test compound 200 mg/kg i.p. at time 0, carbamazepine 20 mg/kg i.p. at time 40, period 40-60 min): 173 ± 78 s | sum total duration of the spike and wave discharges ([2]; test compound 200 mg/kg i.p. at time 0, carbamazepine 20 mg/kg i.p. at time 40, period 60-80 min): 70 ± 64 s | sum total duration of the spike and wave discharges ([2]; test compound 200 mg/kg i.p. at time 0, carbamazepine 20 mg/kg i.p. at time 40, period 80-100 min): 18 ± 17 s | sum total duration of the spike and wave discharges ([2]; test compound 400 mg/kg i.p. at time 0, carbamazepine 20 mg/kg i.p. at time 40, period 0-20 min): 115 ± 43 s | sum total duration of the spike and wave discharges ([2]; test compound 400 mg/kg i.p. at time 0, carbamazepine 20 mg/kg i.p. at time 40, period 20-40 min): 93 ± 71 s | sum total duration of the spike and wave discharges ([2]; test compound 400 mg/kg i.p. at time 0, carbamazepine 20 mg/kg i.p. at time 40, period 40-60 min): 23 ± 14 s | sum total duration of the spike and wave discharges ([2]; test compound 400 mg/kg i.p. at time 0, carbamazepine 20 mg/kg i.p. at time 40, period 60-80 min): 29 ± 29 s | sum total duration of the spike and wave discharges ([2]; test compound 400 mg/kg i.p. at time 0, carbamazepine 20 mg/kg i.p. at time 40, period 80-100 min): 9 ± 9 s | sum total duration of the spike and wave discharges ([3]; test compound 200 mg/kg i.p. at time 0, phenytoin 20 mg/kg i.p. at time 40, period 0-20 min): 394 ± 87 s | sum total duration of the spike and wave discharges ([3]; test compound 200 mg/kg i.p. at time 0, phenytoin 20 mg/kg i.p. at time 40, period 20-40 min): 172 ± 64 s | sum total duration of the spike and wave discharges ([3]; test compound 200 mg/kg i.p. at time 0, phenytoin 20 mg/kg i.p. at time 40, period 40-60 min): 124 ± 85 s | sum total duration of the spike and wave discharges ([3]; test compound 200 mg/kg i.p. at time 0, phenytoin 20 mg/kg i.p. at time 40, period 60-80 min): 239 ± 70 s | sum total duration of the spike and wave discharges ([3]; test compound 200 mg/kg i.p. at time 0, phenytoin 20 mg/kg i.p. at time 40, period 80-100 min): 95 ± 37 s | sum total duration of the spike and wave discharges ([3]; test compound 400 mg/kg i.p. at time 0, phenytoin 20 mg/kg i.p. at time 40, period 0-20 min): 139 ± 61 s | sum total duration of the spike and wave discharges ([3]; test compound 400 mg/kg i.p. at time 0, phenytoin 20 mg/kg i.p. at time 40, period 20-40 min): 48 ± 40 s | sum total duration of the spike and wave discharges ([3]; test compound 400 mg/kg i.p. at time 0, phenytoin 20 mg/kg i.p. at time 40, period 40-60 min): 31 ± 31 s | sum total duration of the spike and wave discharges ([3]; test compound 400 mg/kg i.p. at time 0, phenytoin 20 mg/kg i.p. at time 40, period 60-80 min): 56 ± 53 s | sum total duration of the spike and wave discharges ([3]; test compound 400 mg/kg i.p. at time 0, phenytoin 20 mg/kg i.p. at time 40, period 80-100 min): 42 ± 39 s

CCC1(c2ccccc2)C(=O)NC(=O)NC1=O [Phenobarbital]
effect on the spike and wave discharges (in words) ([4]; 20 mg/kg): ineffective

C=CC(N)CCC(=O)O (stereo not shown) [Vigabatrin®, Vigabatrin, reference compound]
sum total duration of the spike and wave discharges ([1]; Vigabatrin 20 mg/kg i.p. at time 160 alone (antagonist dose 0), period 240-260 min): 875 ± 63 s | sum total duration of the spike and wave discharges ([1]; Vigabatrin 20 mg/kg i.p. at time 160 alone (antagonist dose 0), period 260-280 min): 938 ± 65 s

NCC(CC(=O)O)c1ccc(Cl)cc1 (stereo not shown) [baclofen]
concentration that inhibits epilepsy-like discharges of pyramidal cells [5]: 6 µM

NC(=O)N1c2ccccc2C=Cc2ccccc21 [carbamazepine, reference compound]
effect on the spike and wave discharges (in words) [4]: ineffective or make the attacks worse at high doses | sum total duration of the spike and wave discharges ([2]; carbamazepine 20 mg/kg i.p. at time 40 alone (antagonist dose 0), period 40-60 min): 636 ± 43 s | sum total duration of the spike and wave discharges ([2]; carbamazepine 20 mg/kg i.p. at time 40 alone (antagonist dose 0), period 60-80 min): 669 ± 14 s | sum total duration of the spike and wave discharges ([2]; carbamazepine 20 mg/kg i.p. at time 40 alone (antagonist dose 0), period 80-100 min): 675 ± 75 s

CN1C(=O)CN=C(c2ccccc2)c2cc(Cl)ccc21 [diazepam]
minimal effective dose [4]: ≥ 0.5 mg/kg

CCC1(C)CC(=O)NC1=O (stereo not shown) [ethosuximide]
minimal effective dose [4]: ≥ 25 mg/kg

O=C1NC(=O)C(c2ccccc2)(c2ccccc2)N1 [phenytoin, reference compound]
effect on the spike and wave discharges (in words) [4]: ineffective or make the attacks worse at high doses | sum total duration of the spike and wave discharges ([3]; phenytoin 20 mg/kg i.p. at time 40 alone (antagonist dose 0), period 40-60 min): 555 ± 24 s | sum total duration of the spike and wave discharges ([3]; phenytoin 20 mg/kg i.p. at time 40 alone (antagonist dose 0), period 60-80 min): 658 ± 27 s | sum total duration of the spike and wave discharges ([3]; phenytoin 20 mg/kg i.p. at time 40 alone (antagonist dose 0), period 80-100 min): 562 ± 76 s

CCCC(CCC)C(=O)[O-].[Na+] [sodium valproate]
minimal effective dose [4]: ≥ 50 mg/kg

CN1C(=O)OC(C)(C)C1=O [trimethadione]
minimal effective dose [4]: ≥ 50 mg/kg
